Laboratory results as given in PMC5905968, “Evaluation of the fusion inhibitor P3 peptide as a potential microbicide to prevent HIV transmission in women” (PLoS ONE, 2018).

Legend:
[1] = tested on: HIV-1 isolate 93AOHDC250; experiment: Single-round viral infectivity assay, luciferase, TZM-bl reporter cells, after exposure of P3 to fluids, temperature, pH or H2O2
Method: The antiviral activity of P3 in the presence of SP and VFS was determined with a single-round viral infectivity assay using TZM-bl reporter cells, as previously described. Briefly, TZM-bl cells were plated (1x10^4 cells/well) in a 96-plate and incubated overnight at 37°C with 5% CO2. […] The same procedure was done with VFS and with SP+VFS. Cells were then infected with 200 TCID50 (in 100 μl) of HIV-1 isolate 93AOHDC250 and incubated for 48h before measuring the luciferase activity with the Pierce Firefly Luc One-Step Glow Assay Kit (ThermoFisher Scientific, Rockford, USA) according to the manufacturer’s instructions. At least two independent experiments, each in triplicate, were performed for each antiviral activity analysis. For these experiments, the positive control was made of cells plus virus, the negative control was made of cells plus complete growth medium, compound controls were made of cells plus P3 alone or P3 in SP, VFS or SP+VPS, and the biological fluids control were made of cells plus SP, VFS or SP+VFS.
The long-term stability of P3 was evaluated in the presence of SP [0.5% or 1% (v/v)] or VFS at 37°C for a period of 24h, 48h and 1 week before performing the assay, as described above. In all cases, P3 was considered stable in the presence of biologic fluids if its antiviral activity was unaffected by SP, VFS and SP+VFS. In addition, peptide concentration was determined after exposure to the above conditions by mass spectrometry as described below.
The stability and antiviral activity of P3 were evaluated at different conditions of temperature, pH and oxidation. […] The antiviral activity of each peptide solution was then evaluated with a single-round viral infectivity assay using TZM-bl reporter cells and HIV-1 isolate 93AOHDC250, as described above.
The effect of pH on P3 was evaluated at pH ranging from 4 to 8. Briefly, IC50 peptide solutions were prepared in GM and the pH was adjusted using HCl (1M) or NaOH (1M). Each solution was then incubated at 37°C for 2, 8 and 24 hours and their antiviral activity was determined in a single-round viral infectivity assay using a luciferase reporter gene assay in TZM-bl cells as described above.
To test for oxidation by H2O2, P3 solutions at concentrations corresponding to the IC50 and IC90 were treated with H2O2 at biologic relevant concentrations (1.2μM and 5μM). The antiviral activity of the different solutions was determined in a single-round viral infectivity assay using a luciferase reporter gene assay in TZM-bl cells, as described above.
Controls for these experiments were the following: positive controls (cells plus virus), negative controls (cells plus complete growth medium); pH compound controls (cells plus P3 in different pH growth medium); H2O2 compound controls (cells plus P3 in H2O2, 1.2μM or 5μM); cell controls were also performed under the same incubation conditions. H2O2 and pH cytotoxicity were assessed in TZM-bl cells using alamarBlue assay. In all cases, P3 was considered stable when its antiviral activity was unaffected under the different conditions tested.

[2] = LC-MS/MS determination of P3 after exposure to seminal plasma or vaginal fluid simulant; assay type: in vitro ADME, human; details: triplicates; for P3 level: 37°C, LC-MS/MS, below limit of quantification (2.5 ppm)
Method: Individual standard solutions (0.25–250 ppm) of P3 were prepared in acetonitrile (99.9% LC–MS) (J.T.Baker, Deventer, the Netherlands) in the presence of SP (0.5 or 1.0%), VFS or growth medium (GM) and analyzed after 24h, 48h and 1 week. In order to precipitate the proteins in the biological fluids, 1 ml of acetonitrile (1:1) was added to 1 ml of sample and samples were centrifuged at 13,000 rpm for 10 min and filtered ([…] PVDF membrane; Chromafil®Xtra from Macherey-Nagel®) just before analysis, All samples were analyzed as triplicates.
The LC system was a Waters® Alliance 2695 (Waters®) equipped with a quaternary pump, solvent degasser, auto sampler and column oven, coupled to a Photodiode Array Detector Waters 996 PDA (Waters®) scanning from 210 to 600 nm. The separation was performed on a reversed phase column LiChrospher® 100 RP-18 (10 x 4.0mm; Merck®, Germany) operating at 35 °C, using an injection volume of 10 μl. The mobile phase consisted of water [Ultra-pure water (18.2MΩ.cm) from a Millipore-Direct Q3 UV system (Millipore, USA)] with TFA 0.1% (v/v) (98% p.a.; Merck®, Germany) (A) and acetonitrile with TFA 0.1% (v/v) (B) at a flow rate of 0.30 ml/min. The following gradient was used: 70% of A as initial conditions, 70% A to 30% A for 7 min. A cleaning step was performed using 100% of acetonitrile for 1 min and finally the column was re-equilibrated with 70% of eluent A for 5 min.
A triple quadrupole mass spectrometer MicroMass® Quattro micro (Micromass®, Waters®) with an electrospray ionization source (ESI) was coupled to the LC system, described above. The ion source conditions were optimized using a standard solution directly injected in the ion source: temperature 120°C, capillary voltage 3.0 kV and cone voltage 50 V. The compound was ionized in positive ion mode and the spectra, in Full Scan, were recorded in the range m/z 100–1700. All analyses were performed in multiple reactions monitoring (MRM) mode in order to achieve a high selectivity and sensitivity. […]

[3] = tested on: spermatozoa; experiment: Spermicidal activity: sperm motility (CASA) and viability (Eosin Y); assay type: cell-based, human; details: 114 μM P3, 37°C, 0, 30, 60, 120 and 240 min, versus control without P3; donors n = 3
Method: Sperm was obtained from normal donors (n = 3) after signing a written informed consent. […] Spermatozoa viability was evaluated by dye exclusion method using a solution of Eosin Y (5mg/mL). Two hundred spermatozoa were counted with a phase-contrast microscope (Olympus, Modell BH-2), differentiating the live (unstained) spermatozoa from the dead (stained) cells. Sperm motility was evaluated in a Makler chamber using a computer-aided sperm analysis system (CASA, Hamilton Thorne Research, MA, USA). At least five microscopic fields were assessed in a systematic way to classify 200 spermatozoa motility. Each spermatozoon is graded according to cell velocity: progressive motility (i.e.,>5 μm/s), non-progressive motility (<5 μm/s) and immotility.

Q: For `CC[C@H](C)[C@H](NC(=O)[C@H](CC(N)=O)NC(=O)[C@H](C)NC(=O)[C@H](CCC(=O)O)NC(=O)[C@H](CC(C)C)NC(=O)[C@H](Cc1ccc(O)cc1)NC(=O)[C@H](CCCNC(=N)N)NC(=O)[C@@H](NC(=O)[C@H](CCC(N)=O)NC(=O)[C@H](CCC(N)=O)NC(=O)[C@H](CCC(=O)O)NC(=O)[C@H](Cc1c[nH]c2ccccc12)NC(=O)[C@H](CCC(=O)O)NC(=O)[C@H](CCC(N)=O)NC(=O)[C@H](Cc1c[nH]c2ccccc12)NC(C)=O)C(C)C)C(=O)N[C@@H](CO)C(=O)N[C@@H](CCC(N)=O)C(=O)N[C@@H](CCCNC(=N)N)C(=O)N[C@@H](CC(C)C)C(=O)N[C@@H](CCC(=O)O)C(=O)N[C@@H](CCC(N)=O)C(=O)N[C@@H](C)C(=O)N[C@@H](CCC(N)=O)C(=O)N[C@H](C(=O)N[C@@H](CCC(N)=O)C(=O)N[C@@H](CCC(N)=O)C(=O)N[C@@H](CCC(=O)O)C(=O)N[C@@H](CCCCN)C(=O)N[C@@H](CC(N)=O)C(=O)N[C@@H](CCSC)C(=O)N[C@@H](Cc1ccc(O)cc1)C(=O)N[C@@H](CCC(=O)O)C(=O)N[C@@H](CC(C)C)C(=O)N[C@@H](CCC(N)=O)C(N)=O)[C@@H](C)CC` [P3], which “antiviral activity in the presence of SP 1%” value ([1]; P3 366.4 nM, seminal plasma 1% (v/v), 37°C, 1 week) is on record?
A: The value was “significant decrease of antiviral activity”.

Q: What about the “antiviral activity in the presence of human fluids” value ([1]; P3 366.4 nM, SP 0.5% or 1% (v/v), VFS, SP+VFS, 37°C, up to 1 week of contact, at least two experiments in triplicate) of the same compound?
A: The value was “unaffected”.

Q: And the “time of full antiviral activity in the presence of human biological fluids” value ([1]; P3 366.4 nM, SP 0.5% or 1%, VFS, 37°C)?
A: The value was “at least 48 h”.

Q: And the mean viral inhibition ([1]; P3 at IC90 (366.4 nM) in growth medium, incubated 1 week at 25°C before assay)?
A: The mean viral inhibition was 99%.

Q: And the mean viral inhibition ([1]; P3 at IC90 (366.4 nM) in growth medium, incubated 1 week at 37°C before assay)?
A: Its mean viral inhibition is 99%.

Q: And the mean viral inhibition ([1]; P3 at IC90 (366.4 nM) in growth medium, incubated 1 week at 65°C before assay)?
A: The mean viral inhibition was 100%.

Q: What about the mean viral inhibition ([1]; control: P3 at IC90 (366.4 nM), antiviral activity determined after 48h at 37°C) of the same compound?
A: Its mean viral inhibition is 99%.

Q: What about the P3 level ([2]; after 48h in 1% human seminal plasma) of the same compound?
A: The P3 level was under 2.5 µg/mL.

Q: And the P3 level ([2]; after one week in 0.5% human seminal plasma)?
A: The P3 level was under 2.5 µg/mL.

Q: And the “detection of P3 in the presence of VFS” value ([2]; vaginal fluid simulant pH 4.2, LC-MS/MS (MRM))?
A: Its value is “readily detectable”.

Q: What about the spermatozoa motility [3] of the same compound?
A: The spermatozoa motility was “No significant changes”.

Q: What about the spermatozoa vitality [3] of the same compound?
A: Its spermatozoa vitality is “No significant changes”.
